target: human TRPA1 (Homo sapiens (Human), UniProt O75762); test: Measurement of TRPA1 antagonist activity (1): intracellular calcium increase; format: cell-based; settings: 293T cells transfected with human TRPA1 expression plasmid; allylisothiocyanate 20 μM stimulation; intracellular calcium fluorescence; read-out: hTRPA1 IC50
How it was run: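 HEK293T cells transiently transfected with full-length human TRPA1, loaded with Calcium4 dye in HBSS/20 mM HEPES pH 7.2. Test compound preincubated 10 min, then allylisothiocyanate added at 20 μM final and fluorescence change followed for 5 min. IC50 from sigmoid fit of percent inhibition relative to agonist and buffer controls.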

Sequence of human TRPA1 (O75762 whole entry): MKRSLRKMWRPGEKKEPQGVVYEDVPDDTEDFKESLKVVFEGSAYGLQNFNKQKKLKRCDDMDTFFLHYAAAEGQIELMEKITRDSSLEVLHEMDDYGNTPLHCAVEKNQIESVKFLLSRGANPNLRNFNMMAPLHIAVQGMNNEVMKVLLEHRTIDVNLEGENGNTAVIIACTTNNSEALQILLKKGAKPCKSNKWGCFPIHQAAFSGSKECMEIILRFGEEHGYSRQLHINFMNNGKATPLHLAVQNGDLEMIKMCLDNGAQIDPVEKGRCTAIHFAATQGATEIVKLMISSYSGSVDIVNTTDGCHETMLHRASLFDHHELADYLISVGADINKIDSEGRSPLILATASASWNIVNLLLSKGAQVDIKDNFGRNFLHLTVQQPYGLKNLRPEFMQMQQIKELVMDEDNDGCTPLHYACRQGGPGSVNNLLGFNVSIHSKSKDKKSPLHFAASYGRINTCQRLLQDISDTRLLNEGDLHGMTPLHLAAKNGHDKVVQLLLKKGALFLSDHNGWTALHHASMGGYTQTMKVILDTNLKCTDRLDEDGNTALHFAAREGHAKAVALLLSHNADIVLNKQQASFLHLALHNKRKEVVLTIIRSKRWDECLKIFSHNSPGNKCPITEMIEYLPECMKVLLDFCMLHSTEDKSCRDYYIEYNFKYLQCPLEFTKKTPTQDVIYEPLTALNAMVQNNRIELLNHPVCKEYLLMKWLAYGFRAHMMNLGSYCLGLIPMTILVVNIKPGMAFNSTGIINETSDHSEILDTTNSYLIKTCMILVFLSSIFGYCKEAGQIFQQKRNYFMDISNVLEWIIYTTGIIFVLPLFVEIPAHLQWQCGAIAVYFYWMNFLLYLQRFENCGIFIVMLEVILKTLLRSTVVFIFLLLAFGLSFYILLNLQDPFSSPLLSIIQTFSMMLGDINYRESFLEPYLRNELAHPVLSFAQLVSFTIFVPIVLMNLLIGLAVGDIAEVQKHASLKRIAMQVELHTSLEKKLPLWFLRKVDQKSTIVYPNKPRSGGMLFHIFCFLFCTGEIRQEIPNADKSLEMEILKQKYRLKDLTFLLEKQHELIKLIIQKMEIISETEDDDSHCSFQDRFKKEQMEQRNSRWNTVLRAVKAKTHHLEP

IC50 | SMILES
37 nM | O=C(NCc1cc(-c2ccc(C(F)(F)F)cn2)ccn1)[C@@H]1CCCCN1S(=O)(=O)c1cc2cc(F)ccc2o1 [Example 261, (2S)-1-(5-fluorobenzofuran-2-yl)sulfonyl-N-[[4-[5-(trifluoromethyl)-2-pyridyl]-2-pyridyl]methyl]piperidine-2-carboxamide]
2.3 nM | O=C(NCc1cc(-c2ccc(C(F)(F)F)cn2)ccn1)[C@@H]1[C@H]2CC[C@H](C2)N1S(=O)(=O)c1cc2cc(F)ccc2o1 [Example 262, (1S,2S,4R)-3-(5-fluorobenzofuran-2-yl)sulfonyl-N-[[4-[5-(trifluoromethyl)-2-pyridyl]-2-pyridyl]methyl]-3-azabicyclo[2.2.1]heptane-2-carboxamide]
21 nM | O=C(NCc1cc(-c2ccc(C(F)(F)F)cn2)ccn1)[C@@H]1CC=CCN1S(=O)(=O)c1cc2cc(F)ccc2o1 [Example 263, (2S)-1-(5-fluorobenzofuran-2-yl)sulfonyl-N-[[4-[5-(trifluoromethyl)-2-pyridyl]-2-pyridyl]methyl]-3,6-dihydro-2H-pyridine-2-carboxamide]
12 nM | O=C(NCc1cc(-c2ccc(C(F)(F)F)cn2)ccn1)[C@@H]1CCCN1S(=O)(=O)c1cc2c(Cl)nccc2o1 [Example 265, (2S)-1-(4-chlorofuro[3,2-c]pyridin-2-yl)sulfonyl-N-[[4-[5-(trifluoromethyl)-2-pyridyl]-2-pyridyl]methyl]pyrrolidine-2-carboxamide]
38 nM | O=C(NCc1cc(C(F)(F)F)ccc1Cl)[C@@H]1CCCN1S(=O)(=O)c1cc2cnccc2o1 [Example 266, (2S)-N-[[2-chloro-5-(trifluoromethyl)phenyl]methyl]-1-furo[3,2-c]pyridin-2-ylsulfonyl-pyrrolidine-2-carboxamide]
6.4 nM | O=C(NCc1cccc(OCc2ccccc2)c1)[C@@H]1CCCN1S(=O)(=O)c1cc2cnccc2o1 [Example 267, (2S)-N-[(3-benzyloxyphenyl)methyl]-1-furo[3,2-c]pyridin-2-ylsulfonyl-pyrrolidine-2-carboxamide]
29 nM | O=C(NCc1ccc(Oc2cccc(C(F)(F)F)c2)cc1)[C@@H]1CCCN1S(=O)(=O)c1cc2cnccc2o1 [Example 268, (2S)-1-furo[3,2-c]pyridin-2-ylsulfonyl-N-[[4-[3-(trifluoromethyl)phenoxy]-phenyl]methyl]pyrrolidine-2-carboxamide]
4.3 nM | O=C(NCc1cccc(Oc2ccc(C(F)(F)F)cc2)c1)[C@@H]1CCCN1S(=O)(=O)c1cc2cnccc2o1 [Example 269, (2S)-1-furo[3,2-c]pyridin-2-ylsulfonyl-N-[[3-[4-(trifluoromethyl)phenoxy]-phenyl]methyl]pyrrolidine-2-carboxamide]
3.8 nM | O=C(NCc1cc(-c2ccc(C(F)(F)F)cc2)ncn1)[C@@H]1CCCN1S(=O)(=O)c1cc2cnccc2o1 [Example 270, (2S)-1-furo[3,2-c]pyridin-2-ylsulfonyl-N-[[6-[4-(trifluoromethyl)phenyl]-pyrimidin-4-yl]methyl]pyrrolidine-2-carboxamide]
4.4 nM | O=C(NCc1ccnc(-c2ccc(C(F)(F)F)cc2O)c1)[C@@H]1CCCN1S(=O)(=O)c1cc2cnccc2o1 [Example 271, (2S)-1-furo[3,2-c]pyridin-2-ylsulfonyl-N-[[2-[2-hydroxy-4-(trifluoromethyl)phenyl]-4-pyridyl]methyl]pyrrolidine-2-carboxamide]
12 nM | O=C(NCc1cc(-c2ccc(C(F)(F)F)cn2)ccn1)[C@@H]1CCCN1S(=O)(=O)c1cc2cnccc2o1 [Example 272, (2S)-1-furo[3,2-c]pyridin-2-ylsulfonyl-N-[[4-[5-(trifluoromethyl)-2-pyridyl]-2-pyridyl]methyl]pyrrolidine-2-carboxamide]
1.6 nM | O=C(NCc1ccc(O)c(-c2ccc(C(F)(F)F)cn2)c1)[C@@H]1CCCN1S(=O)(=O)c1cc2cnccc2o1 [Example 273, (2S)-1-furo[3,2-c]pyridin-2-ylsulfonyl-N-[[4-hydroxy-3-[5-(trifluoromethyl)-2-pyridyl]phenyl]methyl]-pyrrolidine-2-carboxamide]
9.8 nM | O=C(NCc1cccc(OCc2ccnc(C(F)(F)F)c2)c1)[C@@H]1CCCN1S(=O)(=O)c1cc2cnccc2o1 [Example 274, (2S)-1-furo[3,2-c]pyridin-2-ylsulfonyl-N-[[3-[[2-(trifluoromethyl)-4-pyridyl]methoxy]phenyl]-methyl]pyrrolidine-2-carboxamide]
3.8 nM | C#CCN([C@@H](C)C(=O)NCc1ccnc(-c2ccc(C(F)(F)F)cc2O)c1)S(=O)(=O)c1cc2cc(F)ccc2o1 [Example 275, (2S)-2-[(5-fluorobenzofuran-2-yl)sulfonyl-2-propynylamino]-N-[[2-[2-hydroxy-4-(trifluoromethyl)phenyl]-4-pyridyl]methyl]propanamide]
150 nM | CC(C)(C)OC(=O)Nc1ccccc1-c1cc(CNC(=O)[C@@H]2CCCN2S(=O)(=O)c2cc3ccccc3o2)ccn1 [Example 276, N-[2-[4-[[[(2S)-1-(benzofuran-2-ylsulfonyl)pyrrolidine-2-carbonyl]amino]methyl]-2-pyridyl]phenyl]carbamic acid tert-butyl]
89 nM | O=C(NCc1ccnc(-c2cc(Cl)cs2)c1)[C@@H]1CCCN1S(=O)(=O)c1cc2ccccc2o1 [Example 277, (2S)-1-(benzofuran-2-ylsulfonyl)-N-[[2-(4-chloro-2-thienyl)-4-pyridyl]methyl]pyrrolidine-2-carboxamide]
16 nM | CSc1ccc(-c2cc(CNC(=O)[C@@H]3CCCN3S(=O)(=O)c3cc4ccccc4o3)ccn2)cc1 [Example 278, (2S)-1-(benzofuran-2-ylsulfonyl)-N-[[2-(4-methylsulfanylphenyl)-4-pyridyl]methyl]pyrrolidine-2-carboxamide]
2.8 nM | O=C(NCc1cncc(-c2ccc(OC(F)(F)F)cc2)c1)[C@@H]1CCCN1S(=O)(=O)c1cc2cc(F)ccc2o1 [Example 279, (2S)-1-(5-fluorobenzofuran-2-yl)sulfonyl-N-[[5-[4-(trifluoromethoxy)phenyl]-3-pyridyl]methyl]pyrrolidine-2-carboxamide]
520 nM | O=C(NCc1cc(-c2ccc(C(F)(F)F)cc2O)ccn1)[C@@H]1CCCN1S(=O)(=O)c1cc2cc(F)ccc2o1 [Example 280, (2S)-1-(5-fluorobenzofuran-2-yl)sulfonyl-N-[[4-[2-hydroxy-4-(trifluoromethyl)phenyl]-2-pyridyl]methyl]pyrrolidine-2-carboxamide]
22 nM | N#Cc1ccc(-c2ccnc(CNC(=O)[C@@H]3CCCN3S(=O)(=O)c3cc4ccccc4o3)c2)cc1 [Example 281, (2S)-1-(benzofuran-2-ylsulfonyl)-N-[[4-(4-cyanophenyl)-2-pyridyl]methyl]pyrrolidine-2-carboxamide]
250 nM | O=C(NCc1cc(/C=C/C2CC2)ccn1)[C@@H]1CCCN1S(=O)(=O)c1cc2ccccc2o1 [Example 282, (2S)-1-(benzofuran-2-ylsulfonyl)-N-[[4-[(E)-2-cyclopropylvinyl]-2-pyridyl]methyl]pyrrolidine-2-carboxamide]
250 nM | O=C(NCc1cc(C2=CCCCC2)ccn1)[C@@H]1CCCN1S(=O)(=O)c1cc2ccccc2o1 [Example 283, (2S)-1-(benzofuran-2-ylsulfonyl)-N-[[4-(cyclohexen-1-yl)-2-pyridyl]methyl]pyrrolidine-2-carboxamide]
76 nM | Cc1ccc(-c2ccnc(CNC(=O)[C@@H]3CCCN3S(=O)(=O)c3cc4ccccc4o3)c2)cc1 [Example 284, (2S)-1-(benzofuran-2-ylsulfonyl)-N-[[4-(p-tolyl)-2-pyridyl]methyl]pyrrolidine-2-carboxamide]
30 nM | CC(C)(C)c1ccc(-c2ccnc(CNC(=O)[C@@H]3CCCN3S(=O)(=O)c3cc4ccccc4o3)c2)cc1 [Example 285, (2S)-1-(benzofuran-2-ylsulfonyl)-N-[[4-(4-tert-butylphenyl)-2-pyridyl]methyl]pyrrolidine-2-carboxamide]
180 nM | O=C(NCc1cc(-c2cc(Cl)cs2)ccn1)[C@@H]1CCCN1S(=O)(=O)c1cc2ccccc2o1 [Example 286, (2S)-1-(benzofuran-2-ylsulfonyl)-N-[[4-(4-chloro-2-thienyl)-2-pyridyl]methyl]pyrrolidine-2-carboxamide]
7.9 nM | C[C@H](NC(=O)[C@@H]1CCCN1S(=O)(=O)c1cc2ccccc2o1)c1cccc(-c2ccc(C(F)(F)F)nc2)c1 [Example 287, (2S)-1-(benzofuran-2-ylsulfonyl)-N-[(1S)-1-[3-[6-(trifluoromethyl)-3-pyridyl]phenyl]ethyl]pyrrolidine-2-carboxamide]
2.5 nM | O=C(NCc1cc(-c2ccc(C(F)(F)F)cc2O)ncn1)[C@@H]1CCCN1S(=O)(=O)c1cc2ccccc2o1 [Example 288, (2S)-1-(benzofuran-2-ylsulfonyl)-N-[[6-[2-hydroxy-4-(trifluoromethyl)phenyl]pyrimidin-4-yl]methyl]pyrrolidine-2-carboxamide]
1.4 nM | O=C(NCc1cc(-c2ccc(C(F)(F)F)cc2O)ncn1)[C@@H]1CCCN1S(=O)(=O)c1cc2cc(F)ccc2o1 [Example 289, (2S)-1-(5-fluorobenzofuran-2-yl)sulfonyl-N-[[6-[2-hydroxy-4-(trifluoromethyl)phenyl]pyrimidin-4-yl]methyl]pyrrolidine-2-carboxamide]
5.7 nM | C[C@H](NS(=O)(=O)c1cc2cc(F)ccc2o1)C(=O)NCc1cc(-c2ccc(C(F)(F)F)cc2O)ncn1 [Example 290, (2S)-2-[(5-fluorobenzofuran-2-yl)sulfonylamino]-N-[[6-[2-hydroxy-4-(trifluoromethyl)phenyl]pyrimidin-4-yl]methyl]propanamide]
28 nM | O=C(NCc1cccc(OCc2ccc(C(F)(F)F)cn2)c1)[C@@H]1CCCN1S(=O)(=O)c1cc2ccccc2o1 [Example 291, (2S)-1-(benzofuran-2-ylsulfonyl)-N-[[3-[[5-(trifluoromethyl)-2-pyridyl]methoxy]phenyl]methyl]pyrrolidine-2-carboxamide]
